Legend:
[1] = Solubility in aqueous buffers; type: physicochemical; details: 0.1% (v/v) Tween 20 used to increase solubility
Method: NMR experiments were performed at 298 K on Bruker Avance III HD spectrometers operating at 750 MHz, equipped with 5 mm triple resonance TCI (^1H, ^13C, ^15N) cryoprobes and shielded z‐gradients. BEA compound was purchased (Item No. 11426) from Cayman Chemical, Ann Arbor, Michigan, USA, and recombinant human CTSB (6His tag at the C‐terminus) was purchased (Item No. 153921.10) from Biomol GmbH, Hamburg, Germany. Both CTSB and BEA were used without any further purifications. The purity of the compound (>95%) was checked by 1D ^1H NMR of 250 μM BEA compound measured (256 scans) in 90% (v/v) DMSOd6 (Figure 2a). […] To perform STD‐NMR experiments, 5 μM of CTSB and 250 μM BEA were prepared in 25 mM oxalic acid/sodium oxalate, 5% (v/v) DMSOd6, pH 5.0, 10% (v/v) D2O, and 0.1% (v/v) Tween 20. The STD‐NMR spectra were acquired with 4928 scans, and the subtraction of the reference spectrum was performed internally via phase cycling after every scan to obtain the STD effect. […] There was no compound signal detected below 0 ppm. […] The STD intensity of the aromatic proton STD effect was set to 100% as a reference, and the relative intensities were determined (Mayer and Meyer [2001]). […] Data was processed and analyzed with TopSpin 3.2 (Bruker BioSpin). […]

human CTSB = molecular target: T1, human CTSB (Homo sapiens, UniProt P07858); assay: Enzyme kinetics of recombinant human CTSB in the presence of BEA; type: biochemical; details: uncompetitive; approximated from closest neighbor intersection point of [S]/v vs. [I] plot; Z-Leu-Arg AMC substrate, BEA 0-25 μM, 25 mM MES pH 5, 26°C; read-out: K i (estimated)
T1 construct: purchased R&D Biosystems 953‐CY
Method: Recombinant human CTSB (R&D Biosystems, Cat# 953‐CY) was activated in a solution of 25 mM MES pH 5 and 5 mM DTT at a protein concentration of 25 μg/mL, as indicated by the manufacturer. The activation was carried out by incubating the solution in a thermal bath at 26°C for 30 min and then diluting it to a concentration of 0.2 μg/mL in a 25 mM MES buffer pH 5. Complete conversion of Procathepsin B into its cleaved form by activation was verified by SDS‐PAGE (Figure S1, Supporting Information).
Reactions were carried out in a 96‐well black microplate (Greiner Bio‐One, Cat# 675086) in a final volume of 100 μL, using 20 ng of enzyme with increasing concentrations of the fluorogenic substrate Z‐Leu‐Arg AMC (R&D Biosystems, Cat# ES008) (from 0 to 200 μM) and BEA (from 0 to 25 μM).
Progress curves were measured using a TECAN infinite M plex microplate reader with an excitation wavelength of 380 nm and an emission wavelength of 460 nm. All the components, except the enzyme, were loaded onto the plate and were left to reach a temperature of 26°C. Protein samples were loaded using a multichannel pipette. Plates were shaken using a pulse of 3.5 s with an amplitude of 4.5 mm. Data was collected for a total of 1400 s with a reading interval of 45 s.
Reaction rates were calculated from the progress curves using linear regression. […]

SMILES: CC(C)[C@H]1OC(=O)[C@H](Cc2ccccc2)N(C)C(=O)[C@@H](C(C)C)OC(=O)[C@H](Cc2ccccc2)N(C)C(=O)[C@@H](C(C)C)OC(=O)[C@H](Cc2ccccc2)N(C)C1=O [BEA, Beauvericin]
- solubility in aqueous buffers [1]: sparingly soluble in aqueous buffers
- Ki (human CTSB): ~44.3 µM
